Experimental data taken from US20260217701A1, “SELECTIVE BET INHIBITORS AND USES THEREOF” (Tay Therapeutics Limited, priority 2022, published 2026).

Target: T1, BRD4 BD2 (Homo sapiens, UniProt O60885)
T1 construct: HEK293 cells were transfected using NanoLuc-BRD4-BD1 or NanoLuc-BRD4-BD2 fusion vectors
Test: NanoBRET bromodomain assay, NanoLuc-BRD4-BD2 in HEK293 cells
Type: binding
Conditions: nanoBRET assay, given as symbol only
Procedure: Plates were then incubated at 37° C.+5% CO2 incubator for 2 hours.
Fold Selectivity Calculated (IC50 BD1/IC50 BD2).

Selectivity (BD1/BD2) (higher number denotes higher selectivity): >>>>
BD2 (lower number denotes higher potency): <
Compound: CSCCn1cc(-c2ccccc2)c(-c2cn(C)c(=O)c3[nH]c(-c4cnn(C(F)(F)F)c4)cc23)cc1=O [Compound C, 6-methyl-4-(1-(2-(methylthio)ethyl)-2-oxo-5-phenyl-1,2-dihydropyridin-4-yl)-2-(1-(trifluoromethyl)-1H-pyrazol-4-yl)-1,6-dihydro-7H-pyrrolo[2,3-c]pyridin-7-one]
